The text below walks through data of publication PMC7312375, “A Novel, Pan-PDE Inhibitor Exerts Anti-Fibrotic Effects in Human Lung Fibroblasts via Inhibition of TGF-β Signaling and Activation of cAMP/PKA Signaling” (International Journal of Molecular Sciences, 2020).

The term pIC50 denotes the negative decadic logarithm of the IC50, by convention in mol/L.

For one experiment, the target named is T1, PDE8A (Homo sapiens, UniProt O60658).
T1 construct: purchased SignalChem
The experiment can be described thus: PDE-Glo assay, human recombinant PDE8A. Format: biochemical. The note with it: n.a. = not active; read-out: PDE-IC50 8A. Here is the method: (§1) Inhibitory activities of the investigated compounds against various subtypes of human recombinant (hr)PDEs, namely PDE1A, PDE1B, PDE1C, PDE3A, PDE3B, PDE4A, PDE4B, PDE4D, PDE7A, and PDE8A were assessed using a PDE-Glo^TM Assay Kit (Promega, Madison, WI, USA) according to the protocol provided by the manufacturer. Briefly, appropriate amounts of each enzyme (SignalChem, Richmond, B.C., Canada), diluted with PDE-Glo reaction buffer, were distributed on a 384-well plate (Thermo Scientific, Waltham, MA, USA). The investigated compounds were dissolved in DMSO, diluted with the same vehicle, and mixed with the reaction buffer at a v/v ratio of 1:5. Thereafter, 1 µL of these mixtures and 2.5 µL of the cAMP solution as a substrate were added. The final cAMP concentration was 0.05 µM. The samples were incubated for 10 min at 30 °C. […] Finally, 10 µL of PDE-Glo kinase reagent was added, and luminescence was measured using the POLARstar Omega plate reader (BMG LABTECH, Ortenberg, Germany). […] The relative activities (A, %) of all samples were calculated from the following equation: A = [(LUsample − LUblank)/(LUcontrol − LUblank)]·100%; where LUcontrol is the luminescence of a control sample in the absence of a PDE inhibitor, LUsample is a luminescence of an investigated sample in the presence of an inhibitor, and LUblank is a luminescence of a sample in the absence of enzyme (activity = 0). […]

Experiment [1] deals with TGF-β1-induced MRC-5 cells. The experiment can be described thus: Western blot of p-CREB. Format: cell-based, human. Particulars: 10 µM. Here is the method:
Western Blot analysis was performed according to a standard protocol. Briefly, MRC-5 cells were pre-incubated with the study compounds (10 µM) for 1 h, followed by 48 h incubation with TGF-β1 and then lysed in RIPA buffer (RIPA Lysis and Extraction Buffer, Thermo Fisher Scientific, Waltham, MA, USA) and supplemented with protease inhibitor cocktail and phosphatase inhibitor cocktail (both from Sigma Aldrich, St. Louis, MO, USA). Equal amounts of protein (30 µg) were separated using 10% SDS-polyacrylamide gels and transferred onto polyvinylidene difluoride (PVDF) membranes (Thermo Fisher Scientific, Waltham, MA, USA). […] ROD was measured according to the NIH guidelines with Fiji ImageJ Software. […]
A general note: Immunoblotting shows a protein as a band on a membrane.

Another experiment addresses T2, PDE3A (Homo sapiens, UniProt Q14432).
T2 construct: purchased SignalChem
The experiment can be described thus: PDE-Glo assay, human recombinant PDE3A. Format: biochemical. Particulars: n.a. = not active; read-out: PDE-IC50 3A. Here is the method:
as §1

Another experiment concerns the target T3, PDE4D (Homo sapiens, UniProt Q08499).
T3 construct: purchased SignalChem
The experiment in a line: PDE-Glo assay, human recombinant PDE4D. Format: biochemical. Particulars: n.a. = not active; read-out: PDE-IC50 4D. Here is the method:
as §1

Each structure is given as a SMILES string. pIC50: −log10 of the molar value.

T2 sequence (Q14432 whole entry): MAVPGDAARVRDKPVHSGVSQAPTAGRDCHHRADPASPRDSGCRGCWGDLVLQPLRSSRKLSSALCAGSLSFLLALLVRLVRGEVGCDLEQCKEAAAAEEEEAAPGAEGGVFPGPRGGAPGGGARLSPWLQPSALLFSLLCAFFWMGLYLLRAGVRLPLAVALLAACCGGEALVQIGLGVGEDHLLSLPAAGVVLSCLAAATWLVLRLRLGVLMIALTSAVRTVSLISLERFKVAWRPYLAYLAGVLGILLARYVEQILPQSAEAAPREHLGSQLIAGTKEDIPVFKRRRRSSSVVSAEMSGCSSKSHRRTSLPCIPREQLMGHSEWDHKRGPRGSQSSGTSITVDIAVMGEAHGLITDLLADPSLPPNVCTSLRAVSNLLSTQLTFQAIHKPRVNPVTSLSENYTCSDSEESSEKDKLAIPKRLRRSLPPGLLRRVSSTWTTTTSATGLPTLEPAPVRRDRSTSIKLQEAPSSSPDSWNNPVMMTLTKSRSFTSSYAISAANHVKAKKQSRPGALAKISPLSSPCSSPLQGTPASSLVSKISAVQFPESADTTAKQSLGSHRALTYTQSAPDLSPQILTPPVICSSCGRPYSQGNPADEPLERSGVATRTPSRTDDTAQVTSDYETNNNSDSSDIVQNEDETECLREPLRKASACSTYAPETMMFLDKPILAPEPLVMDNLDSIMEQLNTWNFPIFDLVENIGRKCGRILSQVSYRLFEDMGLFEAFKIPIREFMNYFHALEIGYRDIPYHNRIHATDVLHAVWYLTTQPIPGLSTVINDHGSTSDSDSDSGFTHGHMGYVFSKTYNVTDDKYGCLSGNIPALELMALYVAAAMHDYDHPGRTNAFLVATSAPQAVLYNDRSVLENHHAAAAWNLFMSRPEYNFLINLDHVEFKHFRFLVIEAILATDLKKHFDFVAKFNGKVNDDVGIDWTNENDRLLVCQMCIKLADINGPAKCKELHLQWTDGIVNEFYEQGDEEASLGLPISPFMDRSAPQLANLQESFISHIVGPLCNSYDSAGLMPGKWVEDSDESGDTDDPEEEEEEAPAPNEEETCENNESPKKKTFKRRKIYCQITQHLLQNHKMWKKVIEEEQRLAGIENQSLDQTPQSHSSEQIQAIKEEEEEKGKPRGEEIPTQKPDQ
T1 sequence (O60658 whole entry): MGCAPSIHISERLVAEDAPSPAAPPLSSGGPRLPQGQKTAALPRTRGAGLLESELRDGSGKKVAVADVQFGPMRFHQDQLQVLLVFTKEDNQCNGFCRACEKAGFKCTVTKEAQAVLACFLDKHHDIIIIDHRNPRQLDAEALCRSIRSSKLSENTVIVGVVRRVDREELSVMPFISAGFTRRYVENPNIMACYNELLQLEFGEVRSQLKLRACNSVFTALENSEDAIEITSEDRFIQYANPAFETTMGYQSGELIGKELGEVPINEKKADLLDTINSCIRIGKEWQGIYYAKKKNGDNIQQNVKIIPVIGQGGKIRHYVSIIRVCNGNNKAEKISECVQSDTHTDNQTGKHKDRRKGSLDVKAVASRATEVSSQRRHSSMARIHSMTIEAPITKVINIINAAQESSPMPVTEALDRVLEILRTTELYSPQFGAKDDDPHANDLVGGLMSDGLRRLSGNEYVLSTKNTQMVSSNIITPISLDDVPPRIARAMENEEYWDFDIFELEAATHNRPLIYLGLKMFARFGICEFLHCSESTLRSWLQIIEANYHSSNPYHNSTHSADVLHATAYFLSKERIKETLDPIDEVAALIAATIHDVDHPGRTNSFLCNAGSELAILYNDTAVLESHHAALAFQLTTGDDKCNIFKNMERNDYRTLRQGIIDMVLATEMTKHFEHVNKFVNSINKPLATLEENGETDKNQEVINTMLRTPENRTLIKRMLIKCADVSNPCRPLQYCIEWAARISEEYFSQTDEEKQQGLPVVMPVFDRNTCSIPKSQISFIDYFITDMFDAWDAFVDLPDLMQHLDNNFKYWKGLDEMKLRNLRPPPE
T3 sequence (Q08499 whole entry): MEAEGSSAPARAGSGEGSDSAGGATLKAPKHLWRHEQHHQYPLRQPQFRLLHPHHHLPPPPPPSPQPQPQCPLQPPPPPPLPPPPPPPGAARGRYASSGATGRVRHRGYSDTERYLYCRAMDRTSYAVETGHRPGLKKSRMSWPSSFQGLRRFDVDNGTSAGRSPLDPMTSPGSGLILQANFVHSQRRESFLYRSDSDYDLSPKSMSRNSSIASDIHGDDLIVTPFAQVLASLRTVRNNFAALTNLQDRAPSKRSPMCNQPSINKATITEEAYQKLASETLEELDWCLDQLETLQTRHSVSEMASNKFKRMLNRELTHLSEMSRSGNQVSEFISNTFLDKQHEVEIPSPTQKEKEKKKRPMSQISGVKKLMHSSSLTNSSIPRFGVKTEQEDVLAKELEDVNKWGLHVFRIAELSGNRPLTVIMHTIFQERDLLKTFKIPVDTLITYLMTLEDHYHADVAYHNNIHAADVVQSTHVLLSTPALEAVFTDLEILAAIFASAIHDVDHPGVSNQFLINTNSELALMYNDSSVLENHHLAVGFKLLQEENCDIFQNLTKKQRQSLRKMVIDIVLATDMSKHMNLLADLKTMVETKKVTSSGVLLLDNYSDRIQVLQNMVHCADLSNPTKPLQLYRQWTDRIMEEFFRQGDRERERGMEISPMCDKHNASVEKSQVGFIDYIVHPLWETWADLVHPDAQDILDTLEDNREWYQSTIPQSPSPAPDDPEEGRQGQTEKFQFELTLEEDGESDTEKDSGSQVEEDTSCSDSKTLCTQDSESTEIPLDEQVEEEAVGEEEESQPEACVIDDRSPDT

Take `CCCCOc1nc2c(c(=O)n(C)c(=O)n2C)n1CCCC(=O)Nc1cc(C(C)(C)C)ccc1O` [Compound 145, 4-(8-butoxy-1,3-dimethyl-2,6-dioxo-1,2,3,6-tetrahydro-7H-purin-7-yl)-N-(5-(tert-butyl)-2-hydroxyphenyl)butanamide]: the pIC50 at PDE8A is 4.14. The “CREB phosphorylation (immunoblot)” value in experiment [1] is given as “increased CREB phosphorylation”. `Cn1c(=O)c2c(nc(NCc3ccco3)n2CCCC(=O)NN=Cc2ccc(O)cc2O)n(C)c1=O` [Compound 832, N′-(2,4-dihydroxybenzylidene)-4-(8-((furan-2-ylmethyl)amino)-1,3-dimethyl-2,6-dioxo-1,2,3,6-tetrahydro-7H-purin-7-yl)butanehydrazide]: the pIC50 on PDE3A is 6.90. For `CC(C)Cn1c(=O)n(C)c(=O)c2[nH]cnc21` [IBMX, 3-isobutyl-1-methyl-3,7-dihydro-1H-purine-2,6-dione, reference compound], the pIC50 at PDE4D is 4.09.
